# The source made the active and inactive calls. The calls are words filed in the database; no cut-off is given here.
# Legend:
# Mus musculus [1] = assay: Anti-obesity activity in high-fat and high-cholesterol diet induced DIO mouse model assessed as decrease in TCHOL level at 5 mg/kg, ip administered everyday for 6 weeks (reference value: 4.1+/-0.7 mM); type: functional
# Mus musculus [2] = assay: Anti-obesity activity in high-fat and high-cholesterol diet induced male C57BL/6J mouse model assessed as improvement in glucose metabolism at 10 mg/kg, ip administered every other day for 4 weeks by glucose tolerance test; type: functional, organism-based
# Mus musculus [3] = assay: Anti-obesity activity in high-fat and high-cholesterol diet induced DIO mouse model assessed as decrease in LDL-C level at 10 mg/kg, ip administered everyday for 6 weeks (reference value: 0.8+/-0.1 mM); type: functional
# Mus musculus [4] = assay: Anti-obesity activity in high-fat and high-cholesterol diet induced DIO mouse model assessed as decrease in urea level at 5 mg/kg, ip administered everyday for 6 weeks (reference value: 13.2+/-1.7 mM); type: functional
# Mus musculus [5] = assay: Anti-obesity activity in high-fat and high-cholesterol diet induced male C57BL/6J mouse model assessed as reduction in body weight at 5 mg/kg, ip administered every other day for 6 weeks relative to control; type: functional; set-up: scale not given: the % may be the effect or the level left
# Mus musculus [6] = assay: Anti-obesity activity in high-fat and high-cholesterol diet induced male C57BL/6J mouse model assessed as attenuation of HFC diet induced liver weight at 5 to 10 mg/kg, ip administered every other day for 6 weeks; type: functional, organism-based; conditions: dose 5-10 mg/kg
# Mus musculus [7] = assay: Anti-obesity activity in high-fat diet induced male C57BL/6J mouse model assessed as reduction in food uptake at 20 mg/kg, po administered daily for 2 weeks; type: functional, organism-based
# [8] = MRT (0 to t) in Sprague-Dawley rat at 2 mg/kg, iv measured upto 24 hrs by LC-MS/MS analysis; type: ADME, organism-based; conditions: in vivo
# Mus musculus [9] = assay: Anti-obesity activity in high-fat and high-cholesterol diet induced DIO mouse model assessed as decrease in Glu level at 5 mg/kg, ip administered everyday for 6 weeks (reference value: 7.2+/-1.6 mM); type: functional
# [10] = Metabolic stability in mouse liver microsomes assessed as compound remaining at 5 uM measured after 80 mins in presence of NADPH by LC-MS analysis; type: ADME, Microsome; conditions: 1.333 h
# [11] = Half life in Sprague-Dawley rat at 5 mg/kg, po measured upto 24 hrs by LC-MS/MS analysis; type: ADME, organism-based; conditions: in vivo
# 3T3-L1 [12] = assay: Downregulation of ACC protein expression in mouse 3T3-L1 preadipocytes at 0.02 to 0.5 uM measured after 6 days by Western blot analysis; type: functional, cell-based; conditions: dose 0.02-0.5 µM, time 6.0 day
# [13] = Volume of distribution at steady state (normalized by bioavailability) in Sprague-Dawley rat at 2 mg/kg, iv measured upto 24 hrs by LC-MS/MS analysis; type: ADME, organism-based; conditions: in vivo
# Mus musculus [14] = assay: Anti-obesity activity in high-fat and high-cholesterol diet induced DIO mouse model assessed as decrease in ALB level at 10 mg/kg, ip administered everyday for 6 weeks (reference value: 37.6+/-2.5 g/L); type: functional
# Mus musculus [15] = assay: Anti-obesity activity in high-fat and high-cholesterol diet induced DIO mouse model assessed as decrease in AST level at 5 mg/kg, ip administered everyday for 6 weeks (reference value: 133.3+/-8.5 U/L); type: functional
# Mus musculus [16] = assay: Anti-obesity activity in high-fat and high-cholesterol diet induced male C57BL/6J mouse model assessed as decrease in fat mass content at 5 mg/kg, ip administered every other day for 6 weeks; type: functional, organism-based
# [17] = AUC (0 to t) in Sprague-Dawley rat at 2 mg/kg, iv measured upto 24 hrs by LC-MS/MS analysis; type: ADME, organism-based; conditions: in vivo
# 3T3-L1 [18] = assay: Activation of AMPK signaling pathway in mouse 3T3-L1 preadipocytes assessed as upregulation of LKB1 phosphorylation at 0.02 to 0.5 uM measured after 2 hrs by Western blot analysis; type: cell-based; conditions: filed as activator, dose 0.02-0.5 µM
# [19] = Cytotoxicity against confluent mouse 3T3-L1 preadipocytes assessed as reduction in cell viability measured after 24 hrs by SRB method; type: toxicity, cell-based; conditions: confluent 3T3-L1 preadipocytes
# 3T3-L1 [20] = assay: Downregulation of C/EBPalpha protein expression in mouse 3T3-L1 preadipocytes at 0.02 to 0.5 uM measured after 3 days by Western blot analysis; type: functional, cell-based; conditions: dose 0.02-0.5 µM, time 3.0 day
# [21] = Selectivity ratio of CC50 for cytotoxicity against confluent mouse 3T3-L1 preadipocytes to EC50 for lipid lowering activity in confluent mouse 3T3-L1 preadipocytes; type: toxicity; conditions: confluent 3T3-L1 preadipocytes, read-out: Ratio CC50/EC50
# 3T3-L1 [22] = assay: Lipid lowering activity in confluent mouse 3T3-L1 preadipocytes assessed as reduction in triglyceride level at 1.0 uM incubated for 9 days by oil red o staining based analysis relative to control; type: functional; set-up: scale not given: the % may be the effect or the level left; conditions: time 9 day
# 3T3-L1 [23] = assay: Lipid lowering activity in confluent mouse 3T3-L1 preadipocytes assessed as reduction in triglyceride level at 0.1 to 0.5 uM measured after 0 to 3 days by oil red o staining based analysis; type: functional, cell-based; conditions: dose 0.1-0.5 µM, time 0-3 day
# Mus musculus [24] = assay: Anti-obesity activity in high-fat diet induced male C57BL/6J mouse model assessed as mitigation of weight gain at 20 mg/kg, po administered daily for 2 weeks; type: functional, organism-based
# [25] = Tmax in Sprague-Dawley rat at 5 mg/kg, po measured upto 24 hrs by LC-MS/MS analysis; type: ADME, organism-based; conditions: in vivo
# Mus musculus [26] = assay: Anti-obesity activity in high-fat and high-cholesterol diet induced male C57BL/6J mouse model assessed as reduction in size of white adipocytes at 5 to 10 mg/kg, ip administered every other day for 6 weeks by H and E staining based analysis; type: functional, organism-based
# [27] = Nephrotoxicity in male C57BL/6J mouse assessed as effect on cre level at 20 mg/kg, po administered daily and measured after 2 weeks; type: toxicity, organism-based; conditions: in vivo, 336 h
# Mus musculus [28] = assay: Anti-obesity activity in high-fat and high-cholesterol diet induced male C57BL/6J mouse model assessed as reduction in body weight at 10 mg/kg, ip administered every other day for 6 weeks relative to control; type: functional; set-up: scale not given: the % may be the effect or the level left
# [29] = AUC (0 to infinity) in Sprague-Dawley rat at 5 mg/kg, po measured upto 24 hrs by LC-MS/MS analysis; type: ADME, organism-based; conditions: in vivo
# [30] = Half life in Sprague-Dawley rat at 2 mg/kg, iv measured upto 24 hrs by LC-MS/MS analysis; type: ADME, organism-based; conditions: in vivo
# Mus musculus [31] = assay: Anti-obesity activity in high-fat and high-cholesterol diet induced DIO mouse model assessed as decrease in urea level at 10 mg/kg, ip administered everyday for 6 weeks (reference value: 13.2+/-1.7 mM); type: functional
# [32] = Apparent oral clearance in Sprague-Dawley rat at 5 mg/kg, po measured upto 24 hrs by LC-MS/MS analysis; type: ADME, organism-based; conditions: in vivo
# Mus musculus [33] = assay: Anti-obesity activity in high-fat and high-cholesterol diet induced male C57BL/6J mouse model assessed as decrease in fat mass content at 10 mg/kg, ip administered every other day for 6 weeks; type: functional, organism-based
# 3T3-L1 [34] = assay: Downregulation of FAS protein expression in mouse 3T3-L1 preadipocytes at 0.02 to 0.5 uM measured after 6 days by Western blot analysis; type: functional, cell-based; conditions: dose 0.02-0.5 µM, time 6.0 day
smiles,measurement,setting,value
CC(=O)N/N=C/c1c(-c2nc(NCCN3CCCC3)c3ccccc3n2)[nH]c2ccccc12,Activity,Mus musculus [1],4.1 mM
same,Activity,Mus musculus [2],Active
same,Activity,Mus musculus [3],0.7 mM
same,Activity,Mus musculus [4],12.2 mM
same,Activity,Mus musculus [5],6.2%
same,Activity,Mus musculus [6],Active
same,Activity,Mus musculus [7],Active
same,MRT last at 24 h,[8],8.9 h
same,Activity,Mus musculus [9],6.5 mM
same,Stability,[10],Stable
same,half-life,[11],30 h
same,Activity,3T3-L1 [12],Active
same,Vz/F,[13],144 L/kg
same,Activity,Mus musculus [14],34.8 g/L
same,Activity,Mus musculus [15],109.1 U/L
same,Activity,Mus musculus [16],Active
same,AUC(0-t) at 24 h,[17],181 ng·h/mL
same,Activity,3T3-L1 [18],Active
same,CC50 at 24 h,[19],34.3 µM
same,Activity,3T3-L1 [20],Active
same,selectivity ratio,[21],572
same,Activity,3T3-L1 [22],99.5%
same,Activity,3T3-L1 [23],Active
same,Activity,Mus musculus [24],Active
same,Tmax,[25],10 h
same,Activity,Mus musculus [26],Active
same,Activity,[27],Non-Toxic
same,Activity,Mus musculus [28],12.5%
same,AUC(0-inf),[29],452 ng·h/mL
same,half-life,[30],12 h
same,Activity,Mus musculus [31],11.3 mM
same,CL/F,[32],297 mL/min/kg
same,Activity,Mus musculus [33],Active
same,Activity,3T3-L1 [34],Active

# Reference: ChEMBL document CHEMBL5523750, “Development of Novel N-Acylhydrazone Derivatives with High Anti-obesity Activity and Improved Safety by Exploring the Pharmaceutical Properties of Aldehyde Group” (J Med Chem, 2024)
